Data: patent publication US4500525A, “Pharmacologically active pyrazolo/4,3-c/pyridines” (Gruppo Lepetit S.p.A., priority 1982, dated 1985)
Structures can show the parent of a compound that is named as a salt. Blank lines part the entries; values can stand above or below the compound they belong to.

Assays:
α1 adrenoceptor = test: displacement of ^3 H-prazosin specifically bound in rat brain homogenate (radioligand binding); conditions: ^3 H Prazosin binding, Ki calculated from IC50, read-out: K1 (nM) ^3 H Prazosin
Description: The compounds of the invention were tested […] for their ability to compete with labelled ligands of α1, α2 -adrenergic,and dopaminergic receptors. Said tests were made essentially following:
(b) the method described by P. Greengrass et al., European Journal of Pharmacology, Vol. 55, pp. 323-326, (1979), which uses the specific displacement of ^3 H-prazosin specifically bound in rat brain homogenate, for the identification of substances interacting with the so called "α1 "adrenoceptor;
The above mentioned methods are radioligand binding assays and are based on the knowledge that many natural or synthetic physiologically active substances such as neurotransmitters, hormones, and others, specifically link to cellular receptors, generally of proteic nature. They are generally obtained from a tissue or organ of a suitable test-animal after isolation and homogenization of said tissue or organ.
The homogenate is twice centrifugated to separate and partially purify the receptorial fraction (synaptosomes).
The labelled substances employed are known to specifically bind their receptors, so the drug-receptor dissociation constants obtained for each test compound under standard conditions are a measure of their actual binding affinities. The validation of the above methods in predicting a possible pharmacological activity was carried out comparing the in vitro binding constants of a number of […] agonist or antagonist of the adrenergic or dopaminergic system with their in vivo activities. The α1 -adrenergic activity is essentially correlated with a peripheral vasodilatation. The α2 -adrenergic activity is essentially correlated with a hypotensive action of central origin, and the dopaminergic activity is correlated with a neuroleptic action. IC50 values, defined as the drug concentration that cause 50% inhibition of the specific ^3 H ligant binding, are observed by incubating from 5 to 7 different dilutions of the tested compound in duplicate or triplicate. Ki, inhibition constant, values are calculated from the following formula: [formula] wherein IC50 is defined as above, C is the concentration of the ^3 H ligand, and KD is the dissociation constant of the ^3 H ligand-receptor complex.

renal hypertensive dogs = test: lowering of blood pressure in renal hypertensive dogs; type: in vivo, dog
Description: In renal hypertensive dogs, preparated essentially according to H. Golblatt, J. Linch. and R. F. Manzal, J. Exp. Med. 59, 347 (1934), some of the compounds of the invention show a considerable lowering of the systolic blood pressure without affecting the heart rate to a great extent.
The test compounds are administered orally and the pressure is measured according to the method of H. Friebel, E. Vrenden, Arch. Exp. Phat. Pharmak. 232, 419 ([…]).
In the above test system the compound of example 100 determines a 20% drop of the blood pressure when administered 0.5 mg/kg p.o., the compound of example 106 determines a 22% drop when administered 1 mg/kg p.o., the compounds of Examples 134 and 135 determine a drop of 34% and 25%, respectively, when administered 5 mg/kg p.o., and the compound of example 107 determines a 43% drop of the blood pressure when administered 10 mg/kg p.o.

mice = test: pole climbing avoidance test; type: in vivo; conditions: i.p., treated/untreated mice
Description: The neuroleptic activity of the compounds of the invention was investigated by means of the "pole climbing avoidance test", as described by L. Cook et al. (Ann. N.Y. Acad. Sci. 66, 740, 1957) and subsequently modified by Maffii et al. (J. Pharm. Pharmac., 11, 129, 1959). As a representative example, the compound of example 38 scores as follows in the above test:
The symbols CR, CR2, and UR corresponds to the primary, secondary conditioned response and to the unconditioned response according to the above test.

[1] = positive inotropic activity in conventional in vitro tests (isolated preparation)
[2] = test system: spontaneously hypertensive rat; test: lowering of arterial pressure in the spontaneously hypertensive rat; type: in vivo; conditions: p.o. 50 mg/kg
Description: Journal, Vol. 27, p. 282, (1963). The arterial pressure was evaluated according to H. Fribel, E. Vredom, described in Arch. Exp. Phat. Pharmak. Vol. 232, p. 416, (1958). […] This 15% threshold is generally considered predictive of significant antihypertensive activity.

SMILES: CN1CCc2[nH]nc(-c3ccc(F)cc3)c2C1 [Example 38, 3-(4-fluorophenyl)-5-methyl-4,5,6,7-tetrahydro-1H-pyrazolo/4,3-c/pyridine]
CR2 (secondary conditioned response) (mice; 10 mg/kg): 9/10
CR (primary conditioned response) (mice; 10 mg/kg): 3/10
UR (unconditioned response) (mice; 10 mg/kg): 0/10
CR2 (secondary conditioned response) (mice; 25 mg/kg): 10/10
CR (primary conditioned response) (mice; 25 mg/kg): 8/10
UR (unconditioned response) (mice; 25 mg/kg): 0/10

SMILES: CCn1nc(-c2cccs2)c2c1CCNC2 [Example 102, 1-ethyl-3-(2-thienyl)-4,5,6,7-tetrahydro-1H-pyrazolo/4,3-c/pyridine, methanesulfonate]
positive inotropic activity [1]: good positive inotropic activity
antagonism of the inotropic activity by propanolol (β-adrenergic effects) ([1]; propanolol): not antagonized by propanolol

SMILES: CN1CCc2c(c(-c3ccc(F)cc3)nn2Cc2ccc(F)cc2)C1 [Example 134, 3-(4-fluorophenyl)-1-(4-fluorophenylmethyl)-5-methyl-4,5,6,7-tetrahydro-1H-pyrazolo/4,3-c/pyridine, hydrochloride]
Ki (α1 adrenoceptor): 6.35 nM
drop of the blood pressure (renal hypertensive dogs; 5 mg/kg p.o.): 34%

SMILES: Fc1ccc(-c2nn(Cc3ccccc3)c3c2CNCC3)cc1 [Example 100, 3-(4-fluorophenyl)-1-phenylmethyl-4,5,6,7-tetrahydro-1H-pyrazolo/4,3-c/pyridine, hydrochloride]
Ki (α1 adrenoceptor): 14.7 nM
lowering of the pressure [2]: 30%
drop of the blood pressure (renal hypertensive dogs; 0.5 mg/kg p.o.): 20%

The next lines start with results.

Ki (α1 adrenoceptor): 23.6 nM
SMILES: Cc1ccc(Cn2nc(-c3ccc(F)cc3)c3c2CCNC3)cc1 [Example 107, 3-(4-fluorophenyl)-1-(4-methylphenylmethyl)-4,5,6,7-tetrahydro-1H-pyrazolo/4,3-c/pyridine, methanesulfonate]
drop of the blood pressure (renal hypertensive dogs; 10 mg/kg p.o.): 43%

Ki (α1 adrenoceptor): 0.331 nM
SMILES: Fc1ccc(Cn2nc(-c3ccc(F)cc3)c3c2CCNC3)cc1 [Example 106]
drop of the blood pressure (renal hypertensive dogs; 1 mg/kg p.o.): 22%

Ki (α1 adrenoceptor): 47.2 nM
SMILES: Cc1ccc(Cn2nc(-c3ccc(F)cc3)c3c2CCN(C)C3)cc1 [Example 135, 3-(4-fluorophenyl)-1-(4-methylphenylmethyl)-5-methyl-4,5,6,7-tetrahydro-1H-pyrazolo/4,3-c/pyridine, methanesulfonate]
drop of the blood pressure (renal hypertensive dogs; 5 mg/kg p.o.): 25%
